Test results taken from patent US20080249103A1, “Sirtuin polymorphisms and methods of use thereof” (Sirtris Pharmaceuticals, Inc., priority 2006, published 2008).
Like-named read-outs stand apart in the source and are kept apart here.

Experiments:
[1] = system: diet induced obese (DIO) mouse; test: Diet Induced Obesity (DIO) mouse model; assay type: in vivo, C57BL/6 mice; conditions: for plasma insulin: SRT1933 100 mg/kg, rosiglitazone 5 mg/kg once daily oral
Method: The vehicle used was 2% HPMC −0.2% DOSS. Individual mouse body weights were measured twice weekly. Every 2 weeks throughout the study, mice from each group were bled via the tail vein for determination of blood glucose and blood plasma insulin. After 1, 3 and 5 weeks of dosing, a fasted blood glucose measure was taken and after 5 weeks of treatment an IPGTT was conducted on all mice from each of the groups. After 9 weeks of treatment, an ITT was conducted and a rectal body temperature was taken on all mice from each of the groups. Statistical analysis was completed using the JMP program (Version 6). Data were analyzed by a one way ANOVA with comparison to control using a Dunnett's Test. A p value <0.05 indicated a significant difference between groups.

[2] = system: citrate synthase activity (mitochondrial capacity); test: Citrate synthase activity in tissues of treated DIO mice; assay type: in vivo, C57BL/6 mice
Method: Citrate synthase (CS) activity in skeletal muscle (gastrocnemius) and white adipose tissue (epididymal) was determined after 11 weeks of treatment using the method described by Srere (Citrate synthase, Methods Enzymol. 1969, 13: 3-5) and Moyes et al. (Moyes CD, Mathieu-Costello 0A, Tsuchiya N, Filbum C, and Hansford RG. Mitochondrial biogenesis during cellular differentiation. Am. J. Physiol. 1997, 272 (Cell Physiol. 41): C1345-C1351.
Citrate Synthase is an enzyme of the Krebs cycle (also called […], TCA, or citric acid) cycle whose maximal activity (capacity) reflects mitochondrial oxidative capacity of the sample (Holloszy et al. 1970, Williams et al. 1986, Hood et al. 1989). […] Irrespective of this latter remark, changes in citrate synthase activity over time in a given individual reflect changes in tissue mitochondrial oxidative capacity. The five mice best representing the mean fasting blood glucose level of each group (DIO Vehicle and DIO SRT1933) were selected for this analysis. The tissues were lyzed in lx Extraction Buffer (20 mM N-2-hydroxyethylpiperazine-N′-2-2ethanesulfonic acid (HEPES), pH 7.2, 0.1% Triton X-100 and 1 mM EDTA with a polytron tissue homogenizer (OMNI International GLH) for 30 seconds at maximum speed (setting 6) on ice. A low-speed (13,000 rpm, microfuge) centrifugation step was then used to pellet big cell debris. The supernatant was used to assess citrate synthase activity. The samples are freeze-thawed 2 times to break the mitochondrial membrane and allow access to citrate synthase. Sample protein concentrations were determined according to the supplier's instructions, with Bio-Rad Protein Assay Dye Reagent Concentrate (cat#500-0006, […]) with Protein Standard I, bovine gamma globulin (cat#500-0005, […]) as standard. The citrate synthase activity assay was performed in a final total volume of 300 μl with 100 μg of protein per sample, measured in triplicate.
Citrate synthase catalyzes the reaction between acetyl coenzyme A (acetyl CoA) and oxaloacetic acid (OAA) to form citric acid. […]

[3] = Plasma exposure after oral gavage in mice; assay type: in vivo, C57BL/6 mice; conditions: 100 mg/kg once daily by oral gavage, each day
Method: The following example describes the in vivo effects of a novel SIRT1 activator. The compound was administered via oral gavage at the doses indicated in FIG. 2a in […] male mice, 18-22 grams (Wilmington, Mass. Charles River Labs), 3 mice per group and blood plasma was collected at 5, 30, 120 and 360 minute time points. The compound was administered in 2% HPMC+0.2% DOSS. Mice were sacrificed at proper time points using CO2 overdose (place in CO2 chamber 40 seconds before time point). Blood was collected in microtainer blood tubes with Lithium Heparin and plasma separator and frozen plasma was sent to Charles River Labs (CRL) for analysis. To determine oral bioavalability, the compound was administered into the tail vein at 0.1, 0.3 and 1.0 mg/kg doses in C57BL/6 male mice, 18-22 grams (Wilmington, Mass. Charles River Labs), 3 mice per group and blood plasma was collected at 5, 30, 120 and 360 minute time points. Compounds were administered in 10% ethanol/ 40% Polyethylene glycol/50% H2O for IV studies. Mice were sacrificed at proper time points using CO2 overdose (place in CO2 chamber 40 seconds before time point). Blood was collected and analyzed as described above.

Human SIRT1 = target: T1, Human SIRT1 (Homo sapiens, UniProt Q96EB6); test: SIRT1 mass spectrometry deacetylase assay; assay type: biochemical
T1 construct: hexa-histidine (N); made in house; host or cells: E. coli BL21(DE3)Star
T1 sequence (Q96EB6 1-747): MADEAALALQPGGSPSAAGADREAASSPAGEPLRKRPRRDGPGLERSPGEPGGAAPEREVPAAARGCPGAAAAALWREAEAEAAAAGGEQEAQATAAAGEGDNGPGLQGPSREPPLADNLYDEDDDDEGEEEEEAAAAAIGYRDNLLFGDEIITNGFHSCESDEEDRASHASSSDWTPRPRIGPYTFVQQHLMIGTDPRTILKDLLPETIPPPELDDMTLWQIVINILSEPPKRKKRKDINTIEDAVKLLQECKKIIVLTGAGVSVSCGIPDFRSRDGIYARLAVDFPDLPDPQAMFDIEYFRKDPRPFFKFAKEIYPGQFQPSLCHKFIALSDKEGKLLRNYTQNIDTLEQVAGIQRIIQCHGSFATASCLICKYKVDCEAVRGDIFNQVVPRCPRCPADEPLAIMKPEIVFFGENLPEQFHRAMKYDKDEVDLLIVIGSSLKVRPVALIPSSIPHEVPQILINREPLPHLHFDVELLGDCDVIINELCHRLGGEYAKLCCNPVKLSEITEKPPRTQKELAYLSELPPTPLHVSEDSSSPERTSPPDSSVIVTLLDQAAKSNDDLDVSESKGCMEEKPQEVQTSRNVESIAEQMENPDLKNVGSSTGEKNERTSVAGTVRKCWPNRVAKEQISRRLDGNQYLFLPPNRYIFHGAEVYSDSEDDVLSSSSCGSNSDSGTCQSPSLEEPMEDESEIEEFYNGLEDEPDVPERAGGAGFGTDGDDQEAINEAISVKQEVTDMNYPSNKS
Text: The following example describes methods for the identification and characterization of Sirt1 activators. Human SIRT1 is expressed from the pSIRT1FL vector which places expression under the control of the T7 promoter. The protein was expressed in E. coli BL21(DE3)Star as an N-terminal fusion to a hexa-histidine affinity tag. The expressed protein was purified by Ni^2+-chelate chromatography. The eluted protein was then purified by size exclusion chromatography followed by ion exchange. The resulting protein was typically >95% pure as assessed by SDS-PAGE analysis. The mass spectrometry based assay utilizes a peptide having 20 amino acid residues as follows: Ac-Glu-Glu-Lys(Biotin)-[…]Ac)-Nle-Ser-Thr-Glu-Gly-Lys(5TMR)-Glu-Glu-NH2 (SEQ ID NO:2) wherein K(Ac) is an acetylated lysine residue and Nle is a norleucine. The peptide is labeled with the fluorophore 5TMR (excitation 540 nm/emission 580 nm) at the C-terminus for use in the FP assay described above. The sequence of the peptide substrate is based on p53 with several modifications.
The mass spectrometry assay was conducted as follows: 0.5 μM peptide substrate and 120 μM βNAD^+ was incubated with 10 nM SIRT1 for 25 minutes at 25° C. in a reaction buffer (50 mM Tris-acetate pH 8, 137 mM NaCl, 2.7 mM KCl, 1 mM MgCl2, 5 mM DTT, 0.05% BSA). Test compounds were added to the reaction or vehicle control, DMSO. After the incubation with SIRT1, 10% formic acid was added to stop the reaction. Determination of the mass of the substrate peptide allows for precise determination of the degree of acetylation (i.e. starting material) as compared to deacetylated peptide (product).
The activity of an exemplary compound against SIRT1 enzyme was profiled using a mass spectrometry readout. In this assay the conversion of acetylated peptide substrate to deacetylated peptide product is tracked by monitoring the change in mass ([…]) upon loss of the acetyl group. […]

[4] = system: diet induced obese (DIO) mouse; test: Diet Induced Obesity (DIO) mouse model; assay type: in vivo, C57BL/6 mice; conditions: DIO mice

## O=C(Nc1ccccc1-c1cn2c(CN3CCNCC3)csc2n1)c1cnc2ccccc2n1 [SRT1933]
[1]; DIO mice, 100 mg/kg once daily oral, by week 2, maintained over 10 week period
  nonfasting blood glucose levels: normalized
[1]; DIO mice, ITT after 9 weeks of treatment
  insulin sensitivity relative to vehicle assessed by ITT: improvement in insulin sensitivity
[1]; DIO mice, once daily oral dosing
  fasting blood glucose levels: normalized
[1]; DIO mice
  plasma insulin: 2.1 ± 0.1 ng/mL
[1]; SRT1933 treated groups (FIG. 2f)
  body temperature: decreased
[1]; both DIO mice and normal chow fed mice
  lowering of core body temperature: ~1 °C
[1]; mice fed a normal chow diet, over the course of the study
  effect on insulin levels: did not have a significant effect
[2]; gastrocnemius muscle, DIO mice, after 11 weeks of treatment
  increase in citrate synthase activity: 15%
[2]; n=5, after 11 weeks (FIG. 2g)
  citrate synthase activity in adipose tissue: trend
  mitochondrial capacity (citrate synthase activity) in skeletal muscle: significant increase
[3]
  duration of exposure above EC1.5: at least 16 hours
Human SIRT1; at the highest doses of compound tested, read-out: maximum activation
  Emax: > 900%
Human SIRT1; read-out: EC1.5 (concentration of compound required to increase enzyme activity by 50%), mass spectrometry readout, 10 nM SIRT1, 0.5 μM peptide substrate, 120 μM βNAD+
  EC1.5: 160 nM
Human SIRT1; read-out: EC1.5, as quoted in legend of FIG. 2a
  EC1.5: 440 nM
[4]
  glucose tolerance in an OGTT relative to vehicle: improved glucose tolerance
[4]; after 5 weeks of treatment, SRT1933 100 mg/kg, rosiglitazone 5 mg/kg once daily oral
  glucose excursion in OGTT (AUC): 462 ± 25 mg·h/dL

## CN(CCOc1ccc(CC2SC(=O)NC2=O)cc1)c1ccccn1 (centres unmarked) [rosiglitazone, reference compound]
[1]; DIO mice
  plasma insulin: 0.9 ± 0.1 ng/mL
